ChEMBL document CHEMBL6078678, “Unveiling the Antimycobacterial Potential of Novel 4-Alkoxyquinolines: Insights into Selectivity, Mechanism of Action, and In Vivo Exposure” (J Med Chem, 2024)
Converted amounts (≈) assume the structure as drawn.

How the values were obtained:
[1] = (§1) Cytotoxicity against African green monkey Vero cells assessed as reduction in cell viability incubated for 72 hrs by MTT assay; format: toxicity, cell-based; conditions: chlorocebus sabaeus, Vero cells
[2] = (§2) Cytotoxicity against human HepG2 cells assessed as reduction in cell viability incubated for 72 hrs by neutral red uptake method; format: toxicity, cell-based; conditions: HepG2 cells
[3] = (§3) Cytotoxicity against African green monkey Vero cells assessed as reduction in cell viability incubated for 72 hrs by neutral red uptake method; format: toxicity, cell-based; conditions: chlorocebus sabaeus, Vero cells
[4] = tested on: Mycobacterium tuberculosis; assay: microbe, parasite or virus in culture; conditions: H37Rv (ATCC 27294)
[5] = (§4) Cytotoxicity against human HepG2 cells assessed as reduction in cell viability incubated for 72 hrs by MTT assay; format: toxicity, cell-based; conditions: HepG2 cells
[6] = Aqueous solubility of compound in HCl at pH 1.2 incubated for 4 hrs by UHPLC-DAD analysis; format: physicochemical
[7] = Aqueous solubility of compound in NH4HCO3 at pH 9.1 incubated for 4 hrs by UHPLC-DAD analysis; format: physicochemical; conditions: NH4HCO3, pH 9.1
Vero [8] = assay: as §1; format: toxicity, cell-based; conditions: chlorocebus sabaeus, vero, 72 h
HepG2 [9] = assay: as §2; format: toxicity, cell-based; conditions: hepg2, 72 h
Vero [10] = assay: as §3; format: toxicity, cell-based; conditions: chlorocebus sabaeus, vero, 72 h
[11] = Aqueous solubility of compound in PBS at pH 7.4 incubated for 4 hrs by UHPLC-DAD analysis; format: physicochemical
HepG2 [12] = assay: as §4; format: toxicity, cell-based; conditions: hepg2, 72 h
[13] = tested on: Mycobacterium tuberculosis; format: functional, H37Rv (ATCC 27294), RAW264.7; conditions: dose 1 µM; time 5 day
[14] = Drug concentration in male CF1 mouse plasma at 300 mg/kg, po administered via gavage and measured after 0.75 hrs by UHPLC-DAD analysis; format: ADME, organism-based
[15] = Drug concentration in male CF1 mouse plasma at 300 mg/kg, po administered via gavage and measured after 4 hrs by UHPLC-DAD analysis; format: ADME, organism-based
[16] = Drug concentration in male CF1 mouse plasma at 300 mg/kg, po administered via gavage and measured after 0.5 hrs by UHPLC-DAD analysis; format: ADME, organism-based
[17] = Drug concentration in male CF1 mouse plasma at 300 mg/kg, po administered via gavage and measured after […] by UHPLC-DAD analysis; format: ADME, organism-based; conditions: time 0.25 hrs
[18] = Chemical stability of compound in 0.1M NH4HCO3 solution at pH 9.1 assessed as parent compound remaining at 10 uM measured after 24 hrs by HPLC-MS/MS analysis; format: physicochemical; conditions: read-out: Stability
[19] = Drug concentration in male CF1 mouse plasma at 300 mg/kg, po administered via gavage and measured after 8 hrs by UHPLC-DAD analysis; format: ADME, organism-based
[20] = Metabolic stability in rat liver microsomes assessed as half-life at 2 uM measured upto 30 mins in presence of NADPH by HPLC-MS/MS analysis; format: ADME, Microsome
[21] = Chemical stability of compound in 0.1 M HCl solution at pH 1.2 assessed as parent compound remaining at 10 uM measured after 24 hrs by HPLC-MS/MS analysis; format: physicochemical; conditions: read-out: Stability
Klebsiella pneumoniae = format: functional; conditions: time 24 hrs
[22] = Half-life in male CF1 mouse at 300 mg/kg, po administered via gavage and measured after 8 hrs by UHPLC-DAD analysis; format: ADME, organism-based; conditions: in vivo
[23] = Drug concentration in male CF1 mouse plasma at 300 mg/kg, po administered via gavage and measured after 1 hrs by UHPLC-DAD analysis; format: ADME, organism-based
[24] = Metabolic stability in rat liver microsomes assessed as intrinsic clearance at 2 uM measured upto 30 mins in presence of NADPH by HPLC-MS/MS analysis; format: ADME, Microsome; conditions: read-out: CLH
[25] = tested on: Mycobacterium tuberculosis; format: functional, H37Rv (ATCC 27294), RAW264.7; conditions: dose 1 µM; time 5 day; remark: listed apart in the source
[26] = tested on: Mycobacterium tuberculosis; format: functional, H37Rv (ATCC 27294), RAW264.7; conditions: dose 5 µM; time 5 day
Acinetobacter baumannii = format: functional; conditions: time 24 hrs
[27] = Chemical stability of compound in PBS at pH 7.4 assessed as parent compound remaining at 10 uM measured after 24 hrs by HPLC-MS/MS analysis; format: physicochemical; conditions: read-out: Stability
[28] = Permeability of compound at pH 7.4 at 10 uM measured after 5 hrs by PAMPA assay; format: ADME; conditions: read-out: permeability
[29] = Elimination rate constant in male CF1 mouse at 300 mg/kg, po administered via gavage and measured after 8 hrs by UHPLC-DAD analysis; format: ADME, organism-based; conditions: in vivo
Escherichia coli = format: functional; conditions: ATCC 25922, time 24 hrs
Staphylococcus aureus = format: functional; conditions: ATCC 25923, time 24 hrs

| Compound | CC50 at 72 h [1] [µM] | CC50 at 72 h [2] [µM] | CC50 at 72 h [3] [µM] | MIC [4] [µM] | CC50 at 72 h [5] [µM] | solubility at 4 h [6] [µM] | other results |
| --- | --- | --- | --- | --- | --- | --- | --- |
| CCc1ccc(NCCCOc2cc(CC)nc3ccc(Br)cc23)cc1 | > 20 | 8.3 | 9.1 | 0.1 (≈ 0.0413 µg/mL) | > 20 |  |  |
| CCc1ccc(NCCCOc2cc(C)nc3ccc(OC)cc23)cc1 |  |  |  | 0.06 (≈ 0.021 µg/mL) |  | 2650 (≈ 929 µg/mL) |  |
| COc1ccc2nc(C)cc(OCCCNc3ccc(Br)cc3)c2c1 | > 20 | 16.8 | 12.8 | 0.1 (≈ 0.0401 µg/mL) | 15.3 | > 2500 |  |
| CCc1ccc(NCCCOc2cc(C)nc3ccc(Cl)cc23)cc1 |  |  |  | 0.03 (≈ 0.0106 µg/mL) |  | 200 (≈ 71 µg/mL) | solubility at 4 h [7]: 0.37 µM (≈ 0.131 µg/mL); CC50 (Vero [8]): Not_determined(Insoluble); CC50 (HepG2 [9]): Not_determined(Insoluble); CC50 (Vero [10]): Not_determined(Insoluble); solubility at 4 h [11]: 0.06 µM (≈ 0.0213 µg/mL); CC50 (HepG2 [12]): Not_determined(Insoluble) |
| Cc1cc(OCCCNc2ccc(Br)cc2)c2cc(Cl)ccc2n1 | < 1 |  |  | 1.55 (≈ 0.629 µg/mL) | 0.3 |  |  |
| COc1ccc2nc(C)cc(OCCCNc3ccc(I)cc3)c2c1 | 8.2 | 12.8 | 7.5 | 0.09 (≈ 0.0403 µg/mL) | 10.6 | > 2230 |  |
| NNC(=O)c1ccncc1 [ISONIAZID] |  |  |  |  |  |  | Activity [13]: 2.25 log10CFU |
| Cc1cc(OCCCNc2ccc(Cl)cc2)c2cc(Br)ccc2n1 |  | > 20 |  |  | > 20 | > 2470 |  |
| CCc1ccc(NCCCOc2cc(C)nc3ccc(Br)cc23)cc1 | > 20 | > 20 |  |  | > 20 | > 2500 | concentration at 0.75 h [14]: 15.7 µM; concentration at 4 h [15]: 13.5 µM; concentration at 0.5 h [16]: 11.1 µM; concentration at […] [17]: 7.49 µM; remaining at 24 h, 10 µM [18]: 6%; concentration at 8 h [19]: 9.8 µM; half-life at 2 µM [20]: 7 min; remaining at 24 h, 10 µM [21]: 100%; MIC (Klebsiella pneumoniae): > 20 µM; half-life [22]: 4.3 h; concentration at 1 h [23]: 32.1 µM; CLint scaled at 2 µM [24]: 58 mL/min/kg; Activity [25]: 3.9 log10CFU; Activity [26]: 4.1 log10CFU; MIC (Acinetobacter baumannii): > 20 µM; remaining at 24 h, 10 µM [27]: 5.3%; Papp at 5 h, 10 µM [28]: 0.2 ×10⁻⁶ cm/s; k el at 8 h [29]: 4.44e-05 s⁻¹; MIC (Escherichia coli): > 20 µM; MIC (Staphylococcus aureus): > 20 µM |
